In patent US10675286B2, “Heterocyclic compounds and uses thereof” (Infinity Pharmaceuticals, Inc., priority 2014, dated 2020):
“Also recorded” adds a separate entry of the source. Where two headings read alike, the source gives them in different places.

Experiments:
Lewis Lung Carcinoma = Lewis Lung Carcinoma (LLC) tumor brei model; format: in vivo, mouse
Procedure: LLC Lewis Lung carcinoma model: LLC cells are derived from a spontaneous lung tumor from a C57BL/6 mouse and can be studied as a s.c. tumor when injected in the flank, or as an orthotopic tumor if injected i.v., following which it localizes to the lung.
Compound BB was tested in the Lewis Lung Carcinoma model, which is known in the art and briefly described hereinabove.
LLC tumor brei model was prepared and injected subcutaneously into a mouse in the hind flank region. The tumor brei was prepared as follows. LL2-Luc tumor cells were grown in culture in DMEM+10% FBS. Cells were implanted @ 1×10^6 cells/100 uL SC in the flank of C57 Albino mice (male) When tumors reached 1000 mm3, tumors were harvested. Only the white, living tissue was harvested. Any material containing visable blood or necrotic area was isolated away from the tumor tissue. Tumor tissue was placed in a Dounce tissue homoginized with 5 mLs of warm DMEM (no FBS). About 1-2 grams of tumor tissue was collected, homogenized, pooled into 50 mL falcon tube, and cells were counted. Cells were spinned @ 12,000 RPM, and FBS was pooled off. Cells were resuspended to equal 1×10^7 cells/mL with sterile PBS. 100 uL of cells/mouse SC at the hind flank region were implanted. This process was repeated one more time before conducting brei tumor efficacy study.
Flow cytometry was performed to obtain a more extensive cellular subset analysis. In particular, the study examined T cell vs. Myeloid cells, Myeloid cell subsets, Regulatory vs. effector T cells, and Tumor markers vs. WBC (e.g., PD-L1 expression on tumor).
Different populations of tumor-associated myeloid cells can be identified by flow cytometry, e.g., monocytic immature myeloid cells (iMC), Granulocytic iMCs/Neutrophils, Tumor Associated Macrophages (TAMs), and Granulocytic MDSCs. The different populations, and panels for detecting MDSCs, are described in Cancer Discovery 2011; 1:54-67. Tumors may vary in their myeloid cell composition.

[1] = test system: collagen induced arthritis; assay: Rat collagen induced arthritis (CIA) model
LLC tumor brei = LLC tumor brei model, immune cells in tumors; format: in vivo
[2] = Stability in simulated gastric fluid; format: physicochemical; details: 38° simulated gastric fluid
From the text: The phyiscochemical properties of Compound BB are drug-like, and suitable for use of the compound as a drug.

[3] = test system: CXCL12-induced T cell migration; assay: CXCL12-induced T-cell migration in CLL PBMCs (transwell); format: cell-based; details: Homo sapiens
Procedure: Specifically, the material used were media (RPMI+0.5% Fetal Bovine Serum+Pen/Strep), total CLL PBMCs (AllCells), CoStar 24-transwell plates ([…]) #3421, BD Cytofix Fixation Buffer (#554655), BD FBS Stain Buffer (BD Biosciences, 554656), Deep 96-well plate (Axygen, P-2ML-SQ-C), rhCXCL12 (R&D, 350-NS-050), CD-19 APC Cy7 (BD #348794 1:20), CD3-PerCPCy5.5 (BD #560835, 1:20), CD5-PE (Biolegend #300608, 1:5), CD4-FITC (BD #561842, 1:20), and CD8-APC (BD #561953, 1:20).
Total CLL human PBMCs were preincubated with Compound AA or BB in media for 45 minutes at 37° C. […] After the 45 minutes of compound preincubation, 500-750K CLL PBMCs were placed in the upper chamber of the transwell insert in a total volume of 100 uL. The cells were allowed to migrate for 2-4 hours at 37° C. The inserts were removed, and 550 uL media from lower chamber were transferred into a deep 96-well plate. The cells were spun at 1280 rpm for 5 minutes and flick media. The cells were resuspended in 400 uL BD Cytofixation buffer and incubated at RT for 10 minutes. 1 mL BD FBS stain buffer was added. The cells were spun at 1280 rpm and fixation buffer was disposed. The cells were resuspended in 100 uL of CD3,4,8,5,19 antibody cocktail made up in BD FBS stain buffer, which was then incubated at room temperature in the dark for 30-60 minutes. 1 mL BD FBS stain buffer was added to each well, which was then spun and flicked. The cells were resuspended in 150 uL FBS stain buffer and transferred to FACS tubes already containing 150 uL FBS stain buffer. Each sample was read on the FACS for 25 seconds. Gate on CD3, 4, 8 and CD19/5 subpopulations individually and calculate average migration index from triplicate samples. See e.g., Borge et al., haematologica 2010, 95(5): 768-775; de Rooij et al., Blood 2012, 119: 2590-2594.

[4] = test system: RANKL driven differentiation of osteoclasts; assay: Osteoclast differentiation assay (TRAP) from bone marrow macrophages; format: cell-based, mouse; details: 6 days
Procedure: Long bones from young C57B6 mice were harvested and bone marrow was extruded by gentle lavage of the bone marrow cavities with a 28 gage needle. The cells were screened, and red blood cells were removed using red blood cell lysis buffer (Sigma). Bone marrow cells were differentiated to macrophages using 20 ng/ml mouse MCSF (RnD systems) for 3 days (RPMI and 20% FCS). The cell were washed with PBS, and lifted with Accutase for 10 minutes.
The bone marrow macrophage cells were plated at 150,000 cells per well in a 96 well plate in a MEM 10% FCS. […] Then 25 ng/ml mouse MCSF with or without mouse RANKL (100 ng/ml, RnD systems) was added for 6 days. Media changes (including drugs) were done at day 3 and day 5. The cells were then fixed and stained with the tartrate resistant acid phosphatase (TRAP) assay kit from Sigma according to the manufactures instructions. TRAP positive cells (osteoclasts and cells undergoing an osteoclastic differentiation) in a transect of the triplicate wells (at 20× […]) were manually counted by going through the widest part of each well.

[5] = test system: LPS-induced neutrophil influx into BALF; assay: LPS-induced neutrophilia in rats, oral administration; format: in vivo; details: rat, p.o., 4 hours post-LPS challenge; dose dependent
Procedure: This study also includes assessment of the exposure to the compounds in plasma and lung tissues.
Ref C is budesonide p.o. The compound was administered p.o. and about 1 hour later, LPS was administered intra-tracheally and plasma was collected. After about 5 hours, plasma and bronchoalveolar lavage samples were collected.

P-GP (P-glycoprotein 1) = P-GP (P-glycoprotein 1) (Homo sapiens (Human), UniProt P08183); assay: P-gp inhibition; format: in vitro ADME
[6] = Pharmacokinetics in rodent and non-rodent animal species (ADME characteristics, Table 25)
From the text: These properties indicate the compound's suitability for in vivo administration.

[7] = test system: M1 macrophage differentiation; assay: M1 macrophage differentiation; format: cell-based; details: data not shown
Procedure: A similar experiment was performed on M1 differentiation.

Chain of P-GP (P-glycoprotein 1) (P08183 whole entry, species assumed): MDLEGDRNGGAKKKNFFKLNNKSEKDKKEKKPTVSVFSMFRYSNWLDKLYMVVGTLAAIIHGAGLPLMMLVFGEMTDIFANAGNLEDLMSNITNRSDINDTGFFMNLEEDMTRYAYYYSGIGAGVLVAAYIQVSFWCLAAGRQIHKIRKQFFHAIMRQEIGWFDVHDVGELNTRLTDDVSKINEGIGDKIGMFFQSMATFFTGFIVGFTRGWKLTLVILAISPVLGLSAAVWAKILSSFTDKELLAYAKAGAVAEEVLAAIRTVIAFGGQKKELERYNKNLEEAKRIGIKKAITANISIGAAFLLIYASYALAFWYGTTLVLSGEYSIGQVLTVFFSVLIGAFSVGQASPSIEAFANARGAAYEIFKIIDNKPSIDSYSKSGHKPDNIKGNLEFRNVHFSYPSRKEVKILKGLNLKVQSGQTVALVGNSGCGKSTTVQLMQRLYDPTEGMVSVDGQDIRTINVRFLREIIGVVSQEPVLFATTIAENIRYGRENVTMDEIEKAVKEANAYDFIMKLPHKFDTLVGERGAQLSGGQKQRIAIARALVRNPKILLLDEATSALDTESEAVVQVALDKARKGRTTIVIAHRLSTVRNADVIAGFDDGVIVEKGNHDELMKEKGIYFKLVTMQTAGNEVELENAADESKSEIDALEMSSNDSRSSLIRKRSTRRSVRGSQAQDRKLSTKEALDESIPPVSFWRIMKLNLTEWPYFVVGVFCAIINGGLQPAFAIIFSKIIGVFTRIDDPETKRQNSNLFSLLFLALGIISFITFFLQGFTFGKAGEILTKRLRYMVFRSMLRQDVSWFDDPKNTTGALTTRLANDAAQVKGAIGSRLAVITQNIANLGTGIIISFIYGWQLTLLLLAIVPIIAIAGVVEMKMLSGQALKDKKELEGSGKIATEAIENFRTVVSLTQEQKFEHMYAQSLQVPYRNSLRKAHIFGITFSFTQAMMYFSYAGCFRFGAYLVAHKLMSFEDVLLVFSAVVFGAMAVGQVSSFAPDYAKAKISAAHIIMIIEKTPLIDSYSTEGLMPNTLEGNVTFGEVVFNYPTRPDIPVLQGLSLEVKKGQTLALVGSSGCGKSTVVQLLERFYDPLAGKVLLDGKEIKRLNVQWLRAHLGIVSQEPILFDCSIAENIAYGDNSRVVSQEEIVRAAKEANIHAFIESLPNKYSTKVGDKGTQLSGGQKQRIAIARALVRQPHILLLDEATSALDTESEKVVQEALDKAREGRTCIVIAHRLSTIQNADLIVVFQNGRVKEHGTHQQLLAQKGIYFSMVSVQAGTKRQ

## C[C@H](NC(=O)c1c(N)nn2cccnc12)c1cc2cccc(C#Cc3cnn(C)c3)c2c(=O)n1-c1ccccc1 [Compound BB]
Lewis Lung Carcinoma
  Number of infiltrating TAMs (flow cytometry, FIG. 38A): the number of infiltrating TAMs was decreased
Lewis Lung Carcinoma; single agent
  Tumor growth (FIGS. 25A and 25B): demonstrated single agent activity
Lewis Lung Carcinoma; vs control
  CD206 staining (M2 macrophages, FIG. 39): CD206 staining was reduced
[1]; Rattus norvegicus
  ED50: 2.13 mg/kg
[1]; rat CIA, day 9 to day 17
  Mean ankle diameter (FIG. 1): has therapeutic effects
LLC tumor brei
  CD206+ M2 polarized suppressive macrophages: reduces
  TAMs in tumor: decreased
[2]
  Stability in simulated gastric fluid: > 4 h
[3]; T-cell subset CD3+, read-out: EC50 (nM), CXCL12 induced T-cell migration
  EC50: 17 ± 17 nM
[3]; T-cell subset CD4+, read-out: EC50 (nM), CXCL12 induced T-cell migration
  EC50: 20 ± 21 nM
[3]; T-cell subset CD8+, read-out: EC50 (nM), CXCL12 induced T-cell migration
  EC50: 13 ± 15 nM
[3]; read-out: EC50, inhibition of CXCL12-induced CD3+ T cell migration (FIG. 8)
  EC50: 10 nM
[4]
  RANKL driven differentiation of osteoclasts (TRAP positive cells, FIG. 17): prevents RANKL driven differentiation of osteoclasts
[5]
  Neutrophil in bronchoalveolar lavage fluid (BALF): reduced neutrophil in bronchoalveolar lavage fluid (BALF); also recorded: more profound effect on neutrophil influx
P-GP (P-glycoprotein 1)
  P-GP (P-glycoprotein 1) inhibition: appears to be an inhibitor of P-GP
[6]
  Clearance and half-life in vivo: low clearance and a long half-life in vivo
[7]
  M1 macrophage differentiation: did not have an observable effect
